Measured values as given in patent US20150290171A1, “METHODS FOR THE TREATMENT OF BONE LOSS” (CELGENE CORPORATION, priority 2012, published 2015).
Where two headings read alike, the source gives them in different places.

Experiments:
sRANKL/OPG protein ratio = assay: OBL culture, sRANKL/OPG protein ratio; format: cell-based, human
Description: (§1) Normal human OBL (nHOST, Lonza) were grown using OBL basal medium containing 10% fetal bovine serum, ascorbic acid, and gentamicin/amphotericin-B (Lonza). Cells were grown to a density of 5×10^5 cells/mL. Compounds were added and the final concentration of dimethyl sulfoxide (DMSO) was 0.25%. Plates were incubated at 5% CO2, 37° C. for 7 days, changing media every 3 days and adding fresh compound. The supernatant was collected for analysis of RANKL (USCNK Life Science Inc), OPG (R&D Systems), and SOST (R&D Systems) by enzyme-linked immunosorbent assay (ELISA). Cells were stained for ALP.

RANK gene expression = conditions: OCL cultures
Description: Human bone marrow mononuclear cells were differentiated into OCL using 10 nM dexamethasone and 10 nM vitamin D for 7 days. APR (0.1-10 μM) was added with fresh medium on days 0 and 3. […] OCL were lysed and RNA was isolated and converted to cDNA. Reverse transcription polymerase chain reaction (RT-PCR) was performed to measure gene expression of RANK and bone morphogenetic protein 6 (BMP-6).

SOST protein = assay: OCY differentiation, SOST protein levels (ELISA); format: cell-based, human
Description: (§2) OBL were differentiated into OCY using hydroxyapatite/tricalcium phosphate biphasic calcium phosphate ceramic particles (Graftys BCP), which were placed into polycarbonate filter well inserts, and the cell culture media was changed every 3 days for a total of 28 days. Gene expression was measured by quantitative RT-PCR for the following: RANK, RANKL, SOST, OPG, mothers against decapentaplegic homolog 1 (SMAD1), collagen 9A2 (COL9A2), vascular endothelial growth factor C (VEGFC), and fibroblast growth factor receptor 1 (FGFR1). Protein production was measured by ELISA.

sRANKL protein [1] = assay: sRANKL protein levels in OCL cultures; format: cell-based, human
[2] = test system: RAW 264.7 mouse macrophages; assay: OCL pit formation; format: cell-based; conditions: RAW 264.7 cells with RANKL 50 ng/mL, FIG. 6 and 7
[3] = test system: Phosphodiesterase 4 enzyme; assay: Inhibition of PDE4 (enzyme purified from U937 cells, [3H]-cAMP); format: biochemical; conditions: PDE4 from U937 human monocytic cells, 1 μM cAMP, 45 min at 30° C.
Description: Phosphodiesterase 4 enzyme was purified from U937 human monocytic cells by gel filtration chromatography, and phosphodiesterase reactions were carried out as previously described. See, e.g., Muller et al., Bioorg. Med. Chem. Lett., 1998, 8(19): 2669-2674. Briefly, reactions were carried out in 96-well deep-well plates in 50 mM Tris HCl pH 7.5, 5 mM MgCl2, 1 μM cyclic adenosine monophosphate (cAMP), plus 10 nM [^3H]-cAMP for 45 min at 30° C. The reactions were terminated by boiling, treated with 1 mg/ml snake venom, and separated using AG-1X8 ion exchange resin (BioRad). Reactions consumed less than 15% of available substrate.

OPG protein = assay: OBL culture, OPG protein in supernatant (ELISA); format: cell-based, human; conditions: 0.1 μM
Description: as §1

[4] = test system: Human bone marrow mononuclear cells differentiated into OCL; assay: OCL differentiation (osteoclastogenesis), number of TRAP-5+ cells; format: cell-based; conditions: OCL cultures, 7 days
sRANKL protein [5] = assay: OBL culture, sRANKL protein in supernatant (ELISA); format: cell-based, human; conditions: 7 days; for reduction of sRANKL protein levels: OBL; for effect on sRANKL protein levels: OBL supernatants
Description: as §1

BMP-6 gene expression = BMP-6 gene expression in OCL cultures (RT-PCR); format: cell-based, human; conditions: FIG. 5
sRANKL = assay: OCY differentiation, sRANKL production (ELISA); format: cell-based, human
Description: as §2

Compound: CCOc1cc([C@@H](CS(C)(=O)=O)N2C(=O)c3cccc(NC(C)=O)c3C2=O)ccc1OC [(+)-2-[1-(3-ethoxy-4-methoxyphenyl)-2-methanesulfonylethyl]-4-acetylaminoisoindolin-1,3-dione]
- decrease of sRANKL/OPG protein ratio (sRANKL/OPG protein ratio; 0.1 μM): 39%
- decrease of sRANKL/OPG protein ratio (sRANKL/OPG protein ratio; 1 μM): 32%
- decrease of sRANKL/OPG protein ratio (sRANKL/OPG protein ratio; 10 μM): 40%
- inhibition of RANK gene expression (RANK gene expression; 1 μM): 30%
- inhibition of RANK gene expression (RANK gene expression; 10 μM): 25%
- reduction of SOST protein levels (SOST protein; 0.1 μM): 16%
- reduction of SOST protein levels (SOST protein; 1 μM): 20%
- reduction of SOST protein levels (SOST protein; 10 μM): 14%
- reduction of sRANKL protein levels (sRANKL protein [1]; 0.1 μM): 25%
- reduction of sRANKL protein levels (sRANKL protein [1]; 1 μM): 21%
- reduction of sRANKL protein levels (sRANKL protein [1]; 10 μM): 38%
- effect on OCL pit formation [2]: inhibition of OCL pit formation
- IC50 [3]: 73.5 nM
- increase of OPG protein levels (OPG protein): 42%
- reduction of number of TRAP-5+ cells ([4]; 0.1 μM): 21%
- reduction of number of TRAP-5+ cells ([4]; 1 μM): 49%
- reduction of number of TRAP-5+ cells ([4]; 10 μM): 73%
- reduction of sRANKL protein levels (sRANKL protein [5]; 1 μM): 25%
- reduction of sRANKL protein levels (sRANKL protein [5]; 10 μM): 25%
- effect on BMP-6 gene expression (BMP-6 gene expression): increase of BMP-6 gene expression
- reduction of sRANKL production (sRANKL; 0.1 μM): 18%
- reduction of sRANKL production (sRANKL; 1 μM): 14%
- reduction of sRANKL production (sRANKL; 10 μM): 17%

Compound: NCCCC(O)(P(=O)(O)O)P(=O)(O)O [Alendronate, alendronate, reference compound]
- effect on sRANKL/OPG ratio (sRANKL/OPG protein ratio; 10 μM): no effect
- inhibition of RANK gene expression (RANK gene expression; 10 μM): 77%
- effect on sRANKL protein levels (sRANKL protein [5]; 10 μM): no significant effect

Compound: O=C(O)c1cc(/N=N/c2ccc(S(=O)(=O)Nc3ccccn3)cc2)ccc1O [sulfasalazine, reference compound]
- effect on sRANKL/OPG ratio (sRANKL/OPG protein ratio; 30 μM): no effect
- effect on sRANKL protein levels (sRANKL protein [5]; 30 μM): no significant effect

Compound: COc1ccc(C2CNC(=O)C2)cc1OC1CCCC1 (stereo not drawn) [Rolipram, rolipram, reference compound]
- effect on sRANKL/OPG ratio (sRANKL/OPG protein ratio; 10 μM): no effect
- effect on sRANKL protein levels (sRANKL protein [5]; 10 μM): no significant effect
